Reference: patent US12336977B2, “Nitenin analogue compounds and their use in the treatment of chronic and acute pain” (SEA4US-BIOTECNOLOGIA E RECURSOS MARINHOS, LDA., priority 2019, dated 2025)
Entries after “also recorded” stand apart in the source; their conditions may differ.

What was measured:
anesthetized Wistar rats = experiment: in vivo ECG recordings of anesthetized Wistar rats; design: species or system rat; settings: intravenous 60 μg/Kg
[1] = tested on: COP rats (CFA injection in the whisker pad of Wistar rats); experiment: chronic orofacial pain (COP) rat model, von Frey filaments; assay type: in vivo; settings: I.V. 1 μg/mL of blood
Description: Values refer to the mechanical sensitivity to face stimulation (whiskers region) using calibrated von Frey Filaments, and consequently reflecting hyperalgesia when hypersensitive (black filled markers—ipsilateral, injured face-side; Open markers—contralateral, uninjured face-side). Dotted line refers to the average value of the ipsilateral face prior to the CFA injection. a) Induction of the model showing that 3 days after operation, the mechanical sensitivity of the ipsilateral face-sides increase markedly, whereas the one associated with the contralateral leg maintains relatively unchanged, similar to baseline values. […]
For efficacy studies, nociception was assessed in all animals from all pain models by regular behavioural monitoring, by quantifying the sensitivity to mechanical stimuli with Von Frey filaments, and consequently reflecting hyperalgesia when hypersensitive. […] Intraperitoneal administration was tested in CFA rats (23 days after CFA injection), with 10 times the nitenin quantity administered by I.V. injections. […] Oral administration of nitenin through stomach gavages (endogastric), with 100 times the quantity administered by I.V. injections, was tested in CCI rats (31 days after surgery). […]

[2] = tested on: isolated rat atria and isolated rat ventricles; experiment: ex vivo rat heart preparations; settings: up to 10 μM
hKv1.3 = molecular target: T1, hKv1.3 (Homo sapiens, UniProt P22001); experiment: voltage-clamp of K+ currents in CHO-K1 cells expressing hKv1.3; assay type: cell-based; settings: inhibition measured at end of 1000 ms pulse, read-out: IC50 of K+ current inhibition, hKv1.3
T1 construct: expressed in transfected cells; host or cells: CHO-K1
T1 sequence (P22001 whole entry): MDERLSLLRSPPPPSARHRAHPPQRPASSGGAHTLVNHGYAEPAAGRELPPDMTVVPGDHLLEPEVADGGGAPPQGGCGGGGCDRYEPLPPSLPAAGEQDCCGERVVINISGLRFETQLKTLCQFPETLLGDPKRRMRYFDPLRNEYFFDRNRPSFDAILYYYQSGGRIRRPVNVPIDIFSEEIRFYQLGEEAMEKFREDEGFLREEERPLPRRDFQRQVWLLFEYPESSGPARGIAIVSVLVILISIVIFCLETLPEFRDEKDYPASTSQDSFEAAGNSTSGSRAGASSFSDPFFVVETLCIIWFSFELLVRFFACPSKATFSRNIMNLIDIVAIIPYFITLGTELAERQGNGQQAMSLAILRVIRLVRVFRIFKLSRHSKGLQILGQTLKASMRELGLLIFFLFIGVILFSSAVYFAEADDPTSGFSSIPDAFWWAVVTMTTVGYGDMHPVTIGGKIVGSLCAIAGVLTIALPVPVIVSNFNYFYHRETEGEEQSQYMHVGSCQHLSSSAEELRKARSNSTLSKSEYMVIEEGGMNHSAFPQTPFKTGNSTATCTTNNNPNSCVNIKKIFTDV
Description: As measure of Ifast, peak current was used, whereas, as a measure of Islow, the current value was obtained at the end of the command pulse (see FIG. 1). Values are expressed as mean±S.E.M. For Islow, a dual phase relationship can be observed. […] Kv1.3 channel is the most sensitive channel (around 6-fold more sensitive in comparison to the “next most sensitive one”, the Kv1.2) Kv1.2, Kv1.1 and Kv1.6 show similar, intermediate sensitivities to nitenin. In opposition, Kv1.4 is the less sensitive (˜31 times less sensitive).
Additionally, drug sensitivity to different voltage-activated channels was assessed by studying the drug effect on currents recorded from chinese hamster ovary (CHO) cells stably transfected with different human Kv channel subunits (Kv1.1, Kv1.2, Kv1.3, Kv1.4 and Kv1.6).
The higher sensitivity of nitenin to Islow (rather than Ifast) and the nature of the nitenin sensitive current (see nitenin sensitive current in FIG. 1.b) urged to understand which K^+ channel(s) do underline Islow. By considering which Kv channel subunits are known to be expressed in DRG, and the biophysical nature of the nitenin-sensitive current, nitenin was tested on whole-cell currents recorded from CHO cells expressing hKv1.1, hKv1.2, hKv1.3, hKv1.4 and hKv1.6. […] Current inhibition was measured at the end of the 1000 ms pulse.

[3] = tested on: K+ currents of small diameter dorsal-root ganglion neuron; experiment: voltage dependence of steady state of inactivation of K+ currents in sdDRGn; assay type: cell-based, rat
Description: (§1) One can observe a shift to hyperpolarized values during the nitenin treatment. The relationships were better fit with the sum of two Boltzmann functions, showing that in both conditions there are two components: one more hyperpolarized component (component 1) and one other more depolarized component (component 2).
as §1, with “treatment with the compound of formula VI.” for “nitenin treatment.”
as §1, with “treatment with the compound of formula VII.” for “nitenin treatment.”
as §1, with “treatment with the compound of formula VIII.” for “nitenin treatment.”
For the electrophysiological recordings of the ex vivo material, voltage-clamp recordings were performed on neurons isolated from rat DRGs (and TGs). Recordings were performed from the soma that often contained the proximal fraction of axon, 1 hour after the end of the cell isolation process (includes enzymatic and mechanical treatment).

C/C(=C\C1C/C(=C/CCc2ccoc2)C(=O)O1)CCCc1ccoc1 (stereo not shown) [nitenin]
arrhythmia or pro-arrhythmic phenomena (ECG) (anesthetized Wistar rats): neither induced arrhythmia or any pro-arrhythmic phenomena | sinus rhythm and heart rate (ECG) (anesthetized Wistar rats): did not change | mechanical sensitivity at the whisker pad region (von Frey) [1]: reaching values not different to those obtained during baseline; also recorded: marked reduction of mechanical sensitivity | sinus heart rate ([2]; ex vivo): does not change | atrial inotropy ([2]; isolated rat atria): does not change | right ventricular (RV) inotropy ([2]; isolated rat ventricles): does not change | IC50 (hKv1.3): 190 nM | effect on I-V curves of the voltage dependence of inactivation [3]: shifts to more hyperpolarised potentials | Vh2 (voltage of half maximum current, component 2) of steady state inactivation ([3]; nitenin 0.1 μg/ml, 0.29 μM, neuron from injured side of CCI rat 28 days after surgery, control −26.3): −47.0 mV | Vh1 (voltage of half maximum current, component 1) of steady state inactivation ([3]; nitenin 0.1 μg/ml, 0.29 μM, neuron from injured side of CCI rat 28 days after surgery, control −73.3): −95.3 mV
